The text below walks through data of patent publication US11873267B2, “Functionalized N,N-dialkylamino phenyl ethers and their method of use” (Temple University-Of The Commonwealth System of Higher …, priority 2016, dated 2024).

For assay [1], the system named is Gaucher patient fibroblasts (Coreill Institute, GM08760). Description: GPN induced calcium release phenotypic assay on Gaucher patient fibroblasts. The format is cell-based, human. The settings on record: for Maximal % Change in GPN Response: ratio of GPN response with drug / without drug x 100; for EC50: Homo sapiens, Fibroblast, 12-point dilution curve in triplicate.

The test system of assay [2] is β-Glucocerebrosidase (GCase). Description: β-Glucocerebrosidase (GCase) activity in lysates of compound-treated Gaucher patient fibroblasts (4-MUG substrate). The format is cell-based, human. The settings on record: 10 μM, 3 days, Gaucher patient fibroblast lysates, no change = 1. On the procedure: Cellular lysates were prepared from compound treated cells and non-treated cells were included as a control. β-Glucocerebrosidase (GCase) activity was directly measured from lysates prepared from treated cells using a fluorescent substrate 4-methylumbelliferyl-β-D-glucopyranoside (MUG). Cells were washed 3× with phosphate-buffered saline (PBS) and detached by scraping. After centrifugation, The pellets were frozen on dry ice, thawed and lysed in McIlvaine (MI) buffer (100 mM sodium citrate, 200 mM sodium phosphate dibasic, 0.25% sodium taurocholate, and 0.1% Triton X-100, pH 5.2 containing protease inhibitors). Lysates are incubated with 3.0 mM 4-methylumbeliferryl-β-glucoside (4-MUG) substrate in MI buffer (50 μL) at 37° C. for 60 minutes. Reactions were stopped by addition of 0.4 M glycine, pH 10.6 (70 μL). Fluorescence was measured on a Clariostar plate reader (BMG Labtech) for one second per well using 355 nm excitation and 460 nm emission. Total protein was determined with the Bradford protein assay kit (BioRad) according to the manufacturer's instructions. The GCase activity measured after compound treatment is normalized to non-treated cells and expressed as relative activity where no change in GCAse activity is equal 1 (FIG. 3).

In assay [3] the test system is Wild-type patient fibroblasts (Coriell Institute, GM 005659). The following applies: wild type patient cells. On the procedure:
Gaucher patient fibroblasts (Coreill Institute, GM08760) were cultured in EMEM with 15% FBS, 1% Pen/Strep at 37° C./5% CO2. Wild-type patient fibroblasts (Coriell Institute, GM 005659) were used as a control cell line. Cells are plated with a MultiFlo dispenser (800 cells/well in 30 μL of complete growth media) in black/clear bottom 384-well plates and cultured for 24 hours at 37° C., 5% CO2. Compounds of the disclosure are then added to the cells (12 point dose response curve, 150 nM to 30 uM final compound concentration using a 5.0 μL of a 7× stock solution (1.05 μM to 210 μM)) under sterile conditions and continued in culture for 72 hours at 37° C., 5% CO2. […] The data from each well were normalized with basal fluorescence by dividing the maximum fluorescence over the entire real time reading by the initial basal fluorescence.
Cells (800 cells/well) were plated with a MultiFlo dispenser (BioTek) and cultured for 24 h at 37° C., 5% CO2. […] Cells were loaded with Screen Quest™ Fluo-8 No Wash Calcium mix (ATT Bio) and analyzed for changes in response to GPN. The data from each well were normalized with basal fluorescence by dividing the maximum fluorescence over the entire real time reading by the initial basal fluorescence. […] EC50 and Hill slope values are determined using a four-parameter dose-response (variable slope) equation in GraphPad Prism.

The mark [4] stands for this setting: Gaucher patient cells, 72 hours compound treatment.

The term EC50 denotes the concentration that produces a half-maximal response.

Counter-ions that a name gives are not always drawn.

In the case of `CCCCC(=Cc1ccc(OCCN(C)C)cc1)c1ccccc1` (stereo in doubt) [Example 4, (Z)—N,N-dimethyl-2-(4-(2-phenylhex-1-en-1-yl)phenoxy)ethan-1-amine trifluoroacetate], in assay [1] (setting [4]), the “Maximal % Change in GPN Response” value was 56% and the half-maximal effective concentration (EC50) amounted to 7.2 µM.
In the same order, the values of `CC/C(=C\c1ccc(OCCN(C)C)cc1)c1ccccc1` [Example 1, (E)-N,N-Dimethyl-2-(4-(2-(phenyl)but-1-en-1-yl)phenoxy)ethan-1-amine] are 70% and 6 µM.
In the same order, the values of `CC/C(=C/c1ccc(OCCN(C)C)cc1)c1ccccc1` [Example 2, (Z)—N,N-Dimethyl-2-(4-(2-(phenyl)but-1-en-1-yl)phenoxy)ethan-1-amine trifluoroacetate] are 62% and 14.1 µM.
Take `CC/C(=C\c1ccc(OCCN2CCCC2)cc1)c1ccccc1` [Example 3, (E)-1-(2-(4-(2-phenylbut-1-en-1-yl)phenoxy)ethyl)pyrrolidine]: in assay [1] (setting [4]), the “Maximal % Change in GPN Response” value turned out to be 175% and the EC50 was 5.3 µM.
In the same order, the values of `C/C(=C/c1ccc(OCCN2CCCC2)cc1)c1ccccc1` [Example 5, (Z)-1-(2-(4-(2-phenylprop-1-en-1-yl)phenoxy)ethyl)pyrrolidine] are 72% and 2.1 µM.
The matching figures for `CC/C(=C/c1ccc(OCCN(C)C)cc1)c1ccc([N+](=O)[O-])cc1` [Example 6, (Z)—N,N-Dimethyl-2-(4-(2-(4-nitrophenyl)but-1-en-1-yl)phenoxy) ethan-1-amine]: 47% and 4.3 µM.
As to `CC/C(=C\c1ccccc1)c1ccc(OCCN(C)C)cc1` [Example 9, (E)-N,N-Dimethyl-2-(4-(1-phenylbut-1-en-2-yl)phenoxy)ethan-1-amine], in assay [1] (setting [4]), the “Maximal % Change in GPN Response” value is reported as 53% and the concentration giving a half-maximal response (EC50) turned out to be 3 µM.
As to `CC/C(=C\c1ccccc1)c1ccc(OCCN2CCCC2)cc1` [Example 10, (E)-1-(2-(4-(1-Phenylbut-1-en-2-yl)phenoxy)ethyl)pyrrolidine], in assay [1] (setting [4]), the “Maximal % Change in GPN Response” value is on record as 48% and the EC50 was 1.1 µM.
The matching figures for `CC(C)C(C(=O)c1ccc(OCCN(C)C)cc1)c1ccccc1` (stereo not drawn) [Example 11, 1-(4-(2-Dimethylaminoethoxy)-phenyl)-3-methyl-2-phenylbutan-1-one]: 54% and 3.3 µM.
The matching figures for `CC(C)CCC(C(=O)c1ccc(OCCN(C)C)cc1)c1ccccc1` (stereo not drawn) [Example 13]: 191% and 1.5 µM.
In the same order, the values of `CC(C)CC(C(=O)c1ccc(OCCN(C)C)cc1)c1ccccc1` (stereo not drawn) [Example 14, 1-(4-(2-(Dimethylamino)ethoxy)phenyl)-4-methyl-2-phenylpentan-1-one] are 108% and 0.7 µM.
In the case of `C=Cc1ccccc1C(CCCC)C(=O)c1ccc(OCCN(C)C)cc1` (stereo not drawn) [Example 15, 1-(4-(2-(dimethylamino)ethoxy)phenyl)-2-(2-vinylphenyl)hexan-1-one], in assay [1] (setting [4]), the “Maximal % Change in GPN Response” value amounted to 217% and the EC50 came to 2.7 µM.
For `CCCCC(C(=O)c1ccc(OCCN(C)C)cc1)c1ccccc1CC` (stereo not drawn) [Example 16, 1-(4-(2-(dimethylamino)ethoxy)phenyl)-2-(2-ethylphenyl)hexan-1-one], in assay [1] (setting [4]), the “Maximal % Change in GPN Response” value worked out at 138% and the EC50 was found to be 0.65 µM.
In the same order, the values of `C=C(C)c1ccccc1C(CCCC)C(=O)c1ccc(OCCN(C)C)cc1` (stereo not drawn) [Example 17] are 275% and 2.2 µM.
In the case of `CCCCC(C(=O)c1ccc(OCCN(C)C)cc1)c1ccccc1C(C)C` (stereo not drawn) [Example 18, 1-(4-(2-(Dimethylamino)ethoxy)phenyl)-2-(2-isopropylphenyl)hexan-1-one], in assay [1] (setting [4]), the “Maximal % Change in GPN Response” value is 233% and the EC50 stood at 0.33 µM.
On to `CCCCC(C(=O)c1ccc(OCCN(C)C)cc1)c1ccccc1` (stereo not drawn) [MC150235, 1-(4-(2-(Dimethylamino)ethoxy)phenyl)-2-phenylhexan-1-one], for which, in assay [1] (setting [4]), the “Maximal % Change in GPN Response” value was found to be 87% and the EC50 was 2.4 µM. Further, the “GCase activity relative to non-treated cells” value in assay [2] was “increase in GCase activity”.
The matching figures for `CCC(Cc1ccc(OCCN(C)C)cc1)c1ccccc1` (stereo not drawn) [MC210155, N,N-Dimethyl-2-(4-(2-phenylbutyl)phenoxy)ethan-1-amine trifluoroacetate]: 154%, 4.8 µM and “increase in GCase activity”.
`CC/C(=C(\c1ccccc1)c1ccc(OCCN(C)C)cc1)c1ccccc1` [Tamoxifen, reference compound]: the “increase in calcium response compared with 0.1% DMSO treated Gaucher patient cells” value in assay [1] (72 hours compound treatment, GPN response) is given as 200±50%. Further, in assay [1] (Gaucher patient cells, 72 hours, confirmed in triplicate), the “activity to increase lysosomal calcium signaling (Prestwick Chemical Library screen)” value is reported as “active compound”. Further, the “increase in GPN-induced calcium response” value in assay [3] is 40+/−20%.
